# Laboratory results taken from US11691972B2, “Compounds for targeted degradation of BRD9” (C4 Therapeutics, Inc., priority 2020, dated 2023).
# Target: T1, BRD9 (Homo sapiens, UniProt Q9H8M2)
# T1 sequence (Q9H8M2 1-597): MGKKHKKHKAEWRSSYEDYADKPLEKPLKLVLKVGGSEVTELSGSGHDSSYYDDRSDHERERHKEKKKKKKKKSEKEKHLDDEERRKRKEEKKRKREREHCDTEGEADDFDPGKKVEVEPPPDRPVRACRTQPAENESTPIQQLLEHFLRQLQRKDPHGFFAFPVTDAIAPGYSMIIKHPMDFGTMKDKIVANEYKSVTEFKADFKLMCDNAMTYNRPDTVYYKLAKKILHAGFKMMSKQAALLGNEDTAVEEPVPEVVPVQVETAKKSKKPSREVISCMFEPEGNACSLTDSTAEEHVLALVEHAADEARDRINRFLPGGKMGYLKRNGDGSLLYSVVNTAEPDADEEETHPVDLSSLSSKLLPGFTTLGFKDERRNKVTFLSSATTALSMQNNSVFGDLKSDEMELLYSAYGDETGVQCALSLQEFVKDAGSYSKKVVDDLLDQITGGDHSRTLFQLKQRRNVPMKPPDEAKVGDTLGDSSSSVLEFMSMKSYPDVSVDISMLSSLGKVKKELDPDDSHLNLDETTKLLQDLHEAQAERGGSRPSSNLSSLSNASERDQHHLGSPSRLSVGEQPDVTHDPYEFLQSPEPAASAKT
# Test: HiBiT BRD9 degradation assay in 293T.166 (BRD9-HiBiT) cells
# Format: cell-based
# Design: endogenously expressing BRD9 with HiBiT fusion tag via CRISPR; host or cells: 293T.166 (BRD9-HiBiT), also expressing LgBiT ectopically
# Settings: Table 1; 293T.166 cells, 2.0 hours; class symbols; read-out: HiBiT-Degradation 293T.166 BRD9 2.0 hours (DC50)
# Description: Selected compounds were tested in a BRD9 degradation assay using the HiBit Method.
# Dulbecco's modified Eagle medium (DMEM) without phenol red and fetal bovine serum (FBS) were purchased from Gibco (Grand Island, N.Y., USA). Nano-Glo® HiBiT Lytic Assay System was purchased from Promega (Madison, Wis., USA). 293T.166 (BRD9-HiBiT) cell line, endogenously expressing BRD9 with HiBiT fusion tag via CRISPR and ectopically expressing LgBiT tag, was purchased from Promega (Madison, Wis., USA). 293T.167 (BRD7-HiBiT) cell line, endogenously expressing BRD7 with HiBiT fusion tag via CRISPR and ectopically expressing LgBiT tag, was purchased from Promega (Madison, Wis., USA). 293T.92 (BRD4-HiBiT) cell line, endogenously expressing BRD4 with HiBiT fusion tag via CRISPR and ectopically expressing LgBiT tag, was generated in-house. Cell culture flasks and 384-well microplates were acquired from VWR (Radnor, Pa., USA).
# BRD9 degradation was determined based on quantification of luminescent signal using Nano-Glo® HiBiT Lytic Assay kit. Test compounds were added to the 384-well plate from a top concentration of 10 μM with 11 points, half log titration in duplicates. 293T.166 cells were added into 384-well plates at a cell density of 10,000 cells per well. The plates were kept at 37° C. with 5% CO2 for 2 hours. BRD7 and BRD4 degradation was similarly determined with 293T.167 cells and 293T.92 cells, respectively. The cells treated in the absence of the test compound were the negative control and the cells without Nano-Glo® HiBiT Lytic reagent were the positive control. After 2-hour incubation, Nano-Glo® HiBiT Lytic Assay reagents were added to the cells. Luminescence was acquired on EnVision™ Multilabel Reader (PerkinElmer, Santa Clara, Calif., USA).
row,Structure (SMILES),DC50
1,"COc1cc(-c2cn(C)c(=O)c3[nH]ncc23)cc(F)c1CN1CCC(CCC2CCN(c3ccc(NC4CCC(=O)NC4=O)cc3)CC2)CC1 (centres unmarked) [Compound 147, 3-[4-[4-[2-[1-[[2-fluoro-6-methoxy-4-(6-methyl-7-oxo-1H-pyrazolo[3,4-c]pyridin-4-yl)phenyl]methyl]-4-piperidyl]ethyl]-1-piperidyl]anilino]piperidine-2,6-dione]",< 100 nM
2,COc1cc(-c2cn(C)c(=O)c3[nH]ncc23)cc(Cl)c1C(=O)N1CCc2c(CC3CCN(c4ccc(NC5CCC(=O)NC5=O)cc4F)CC3)ccc(F)c2C1 (centres unmarked) [Compound 240],< 100 nM
3,COc1cc(-c2cn(C)c(=O)c3cnccc23)cc(Cl)c1CN1CCC(F)(CCC2CCN(c3ccc(NC4CCC(=O)NC4=O)cc3F)CC2)CC1 (centres unmarked) [Compound 152],< 100 nM
4,"COc1cc(-c2cn(C)c(=O)c3[nH]ncc23)cc(Cl)c1CN1CCC(C(=O)Nc2ccc(NC3CCC(=O)NC3=O)cc2F)CC1 (centres unmarked) [Compound 169, 1-[[2-chloro-6-methoxy-4-(6-methyl-7-oxo-1H-pyrazolo[3,4-c]pyridin-4-yl)phenyl]methyl]-N-[4-[(2,6-dioxo-3-piperidyl)amino]-2-fluoro-phenyl]piperidine-4-carboxamide]",< 100 nM
5,COc1cc(-c2cn(C)c(=O)c(C)c2C)cnc1CN1CCC(C2CCN(c3ccc(NC4CCC(=O)NC4=O)cc3F)CC2)CC1 (centres unmarked) [Compound 82],< 100 nM
6,COc1cc(-c2cn(C)c(=O)c(C)c2C)cc(Cl)c1CN1CCC(N2CCN(c3ccc(NC4CCC(=O)NC4=O)nc3)CC2)C(F)(F)C1 (centres unmarked) [Compound 196],< 100 nM
7,"COc1cc(-c2cn(C)c(=O)c3[nH]ncc23)cc(OC)c1CN1CCc2c(cccc2CN2CCC(c3ccc(NC4CCC(=O)NC4=O)cc3)C(F)(F)C2)C1 (centres unmarked) [Compound 95, 3-[4-[1-[[2-[[2,6-dimethoxy-4-(6-methyl-7-oxo-1H-pyrazolo[3,4-c]pyridin-4-yl)phenyl]methyl]-3,4-dihydro-1H-isoquinolin-5-yl]methyl]-3,3-difluoro-4-piperidyl]anilino]piperidine-2,6-dione]",< 100 nM
8,COc1cc(-c2cn(C)c(=O)c3cnccc23)cc(F)c1C(=O)N1CCC(N2CCN(c3ccc(NC4CCC(=O)NC4=O)cc3F)CC2)C(F)(F)C1 (centres unmarked) [Compound 226],< 100 nM
9,COc1cc(-c2cn(C)c(=O)c3[nH]ncc23)cc(OC)c1CN1CCN(C(=O)CN2CCC(c3ccc(C4CCC(=O)NC4=O)cc3)CC2)CC1 (centres unmarked) [Compound 16],< 100 nM
10,"COc1cc(-c2cn(C)c(=O)c(C)c2C)cc(OC)c1CN1CCC(N2CCN(c3ccc(NC4CCC(=O)NC4=O)cc3F)CC2)C(F)(F)C1 (single isomer, unassigned) [Compound 173, 3-[4-[4-[1-[[2,6-dimethoxy-4-(1,4,5-trimethyl-6-oxo-3-pyridyl)phenyl]methyl]-3,3-difluoro-4-piperidyl]piperazin-1-yl]-3-fluoro-anilino]piperidine-2,6-dione]",< 100 nM
11,COc1cc(-c2cn(C)c(=O)c3[nH]ncc23)cc(OC)c1CN1CCN(C(=O)CC2CCN(c3ccc(NC4CCC(=O)NC4=O)cc3Cl)CC2)CC1 (centres unmarked) [Compound 67],< 100 nM
12,COc1cc(-c2cn(C)c(=O)c3ccccc23)cc(Cl)c1CN1CCC(N2CCC(c3ccc(NC4CCC(=O)NC4=O)cc3F)CC2)C(F)(F)C1 (centres unmarked) [Compound 202],< 100 nM
13,COc1cc(-c2cn(C)c(=O)c3[nH]ncc23)cc(OC)c1CC1CCN(C(=O)CC2CCN(c3ccc(NC4CCC(=O)NC4=O)cc3)CC2)CC1 (centres unmarked) [Compound 159],< 100 nM
14,COc1cc(-c2cn(C)c(=O)c3[nH]ncc23)cc(Cl)c1CN1CCN(C(=O)CC2CCN(c3ccc(NC4CCC(=O)NC4=O)cc3C(F)(F)F)CC2)CC1 (centres unmarked) [Compound 53],< 100 nM
15,"COc1cc(-c2cn(C)c(=O)c3[nH]ncc23)cc(OC)c1CN1CCc2c(CC3CCN(c4ccc(NC5CCC(=O)NC5=O)cc4)CC3)cccc2C1 (centres unmarked) [Compound 104, 3-[4-[4-[[2-[[2,6-dimethoxy-4-(6-methyl-7-oxo-1H-pyrazolo[3,4-c]pyridin-4-yl)phenyl]methyl]-3,4-dihydro-1H-isoquinolin-5-yl]methyl]-1-piperidyl]anilino]piperidine-2,6-dione]",< 100 nM
16,COc1cc(-c2cn(C)c(=O)c3[nH]ncc23)cc(OC)c1CN1CCN(C(=O)CN2CCC(c3ccc(NC4CCC(=O)NC4=O)cc3C(F)(F)F)CC2)CC1 (centres unmarked) [Compound 18],< 100 nM

# Further lines, results first:
row,DC50,Structure (SMILES)
1,< 100 nM,COc1cc(-c2cn(C)c(=O)c3cnccc23)cc(F)c1CN1CCC(N2CCN(c3ccc(NC4CCC(=O)NC4=O)cc3F)CC2)C(F)(F)C1 (centres unmarked) [Compound 189]
2,< 100 nM,COc1cc(-c2cn(C)c(=O)c3cnccc23)cc(Cl)c1C(=O)N1CCC(C2CCN(c3ccc(NC4CCC(=O)NC4=O)cc3F)CC2)CC1 (centres unmarked) [Compound 209]
3,< 100 nM,COc1cc(-c2cn(C)c(=O)c3cnccc23)cc(Cl)c1CN1CCC(CC(=O)N2CCC(c3ccc(NC4CCC(=O)NC4=O)cc3)CC2)CC1 (centres unmarked) [Compound 44]
4,< 100 nM,CN(C(=O)N1CCC(c2ccc(NC3CCC(=O)NC3=O)cc2)CC1)C1CCN(Cc2ccc(-c3cn(C)c(=O)c4cnccc34)cc2OC(F)(F)F)CC1 (centres unmarked) [Compound 122]
5,< 100 nM,COc1cc(-c2cn(C)c(=O)c3cnccc23)cc(Cl)c1CN1CCC(C2CCN(c3ccc(NC4CCC(=O)NC4=O)cc3Cl)CC2)CC1 (centres unmarked) [Compound 77]
6,< 100 nM,COc1cc(-c2cn(C)c(=O)c3ccccc23)cc(Cl)c1CN1CCC(N(C)C(=O)N2CCC(c3ccc(NC4CCC(=O)NC4=O)cc3)CC2)CC1 (centres unmarked) [Compound 121]
7,< 100 nM,COc1cc(-c2cn(C)c(=O)c3[nH]ncc23)cc(OC)c1CN1C[C@H]2C[C@@H]1CN2C(=O)CN1CCC(c2ccc(NC3CCC(=O)NC3=O)cc2)CC1 (some centres unmarked) [Compound 14]
8,< 100 nM,COc1cc(-c2cn(C)c(=O)c3[nH]ncc23)cc(Cl)c1CN1CCC(N(C)C(=O)N2CCC(c3ccc(OC4CCC(=O)NC4=O)cc3)CC2)CC1 (centres unmarked) [Compound 120]
9,< 100 nM,COc1cc(-c2cn(C)c(=O)c3cnccc23)cc(Cl)c1CN1CCC(CCC2CCN(c3ccc(NC4CCC(=O)NC4=O)cc3C(F)(F)F)CC2)CC1 (centres unmarked) [Compound 149]
10,< 100 nM,COc1cc(-c2cn(C)c(=O)c3cnccc23)cc(F)c1CN1CCC(C2CCN(c3ccc(NC4CCC(=O)NC4=O)cc3C(F)(F)F)CC2)CC1 (centres unmarked) [Compound 87]

# Same assay, conditions: Table 2; 293T.166 cells, 2.0 hours; class symbols; read-out: HiBiT-Degradation 293T.166 BRD9 2.0 hours (DC50)
row,Structure (SMILES),DC50
1,"[2H]C([2H])([2H])n1cc(-c2ccc(CN3CCC(C4CCN(c5ccc(NC6CCC(=O)NC6=O)cc5F)CC4)CC3)c(OC(F)(F)F)c2)c2ccncc2c1=O (centres unmarked) [Compound 252, 3-[3-fluoro-4-[4-[1-[[4-[1-oxo-2-(trideuteriomethyl)-2,7-naphthyridin-4-yl]-2-(trifluoromethoxy)phenyl]methyl]-4-piperidyl]-1-piperidyl]anilino]piperidine-2,6-dione]",< 100 nM
2,"COc1cc(-c2cn(C)c(=O)c(C)c2C)cc(Cl)c1CN1CCC(C2CCN(c3ccc(NC4CCC(=O)NC4=O)cc3F)CC2)C(F)(F)C1 (single isomer, unassigned) [Compound 258]",100 to 500 nM
3,"COc1cc(-c2cn(C)c(=O)c(C)c2C)cnc1CN1CCC(N2CCN(c3ccc(NC4CCC(=O)NC4=O)cc3F)CC2)C(F)(F)C1 (centres unmarked) [Compound 260, 3-[4-[4-[3,3-difluoro-1-[[3-methoxy-5-(1,4,5-trimethyl-6-oxo-3-pyridyl)-2-pyridyl]methyl]-4-piperidyl]piperazin-1-yl]-3-fluoro-anilino]piperidine-2,6-dione]",< 100 nM
